Tests used:
rat NaP2b (SLC34A2) = molecular target: T1, rat NaP2b (SLC34A2) (Rattus norvegicus, UniProt Q9JJ09); experiment: NaP2b-mediated Pi transport (33P uptake) in transfected HEK293 cells, rat NaP2b; assay type: cell-based; conditions: Structure (II) examples, Table 2; HEK293, 0.1 mM phosphate; read-out: pIC50 range for rat Nap2b (converted)
T1 construct: host or cells: HEK293
T1 sequence (Q9JJ09 1-695): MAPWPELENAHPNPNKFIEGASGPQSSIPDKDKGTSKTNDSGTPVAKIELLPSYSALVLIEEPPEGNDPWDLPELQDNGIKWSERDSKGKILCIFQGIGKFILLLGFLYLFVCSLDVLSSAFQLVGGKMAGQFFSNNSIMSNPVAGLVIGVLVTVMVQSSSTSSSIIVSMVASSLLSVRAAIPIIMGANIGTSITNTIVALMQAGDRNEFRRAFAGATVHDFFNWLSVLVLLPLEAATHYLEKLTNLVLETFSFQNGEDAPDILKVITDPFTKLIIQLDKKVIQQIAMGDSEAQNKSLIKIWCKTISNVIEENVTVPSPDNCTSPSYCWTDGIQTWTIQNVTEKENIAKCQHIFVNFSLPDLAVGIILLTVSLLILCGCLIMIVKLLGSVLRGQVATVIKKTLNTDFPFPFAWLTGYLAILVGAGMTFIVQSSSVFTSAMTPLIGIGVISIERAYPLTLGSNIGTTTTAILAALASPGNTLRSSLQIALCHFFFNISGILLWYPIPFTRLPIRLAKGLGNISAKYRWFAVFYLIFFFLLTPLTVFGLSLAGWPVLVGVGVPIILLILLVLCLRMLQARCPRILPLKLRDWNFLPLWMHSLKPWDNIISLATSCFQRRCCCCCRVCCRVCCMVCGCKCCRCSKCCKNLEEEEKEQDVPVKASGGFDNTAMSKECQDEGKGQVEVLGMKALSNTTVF
How it was run: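 HEK293 cells transiently transfected with NaP2b cDNA, endogenous PiT transport suppressed; ^33P-phosphate uptake measured in sodium vs choline buffer (100 uM KH2PO4, pH 7.4) for 3–30 min at room temperature. Twelve concentrations, 0.1 nM–30 uM, in duplicate; uptake by scintillation counting, pIC50 calculated.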

[1] = Determination of compound Cmax and AUC after oral gavage (plasma LC-MS/MS); assay type: in vivo, Sprague-Dawley rats; conditions: Sprague-Dawley, rat, plasma, po, Structure (II) examples, Table 6, actual oral dose 7.6-11 mg/kg
How it was run: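 Plasma exposure measured by LC-MS/MS after acetonitrile precipitation with internal standard, quantified against a standard curve made in plasma. Compound given orally by gavage to Sprague-Dawley rats at nominal 2.5 or 10 mg/kg, with K2EDTA plasma sampled at 0.5, 1, 2 and 4 h.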

human NaP2b (SLC34A2) = molecular target: T2, human NaP2b (SLC34A2) (Homo sapiens, UniProt O95436); experiment: NaP2b-mediated Pi transport (33P uptake) in transfected HEK293 cells, human NaP2b; assay type: cell-based; conditions: Structure (II) examples, Table 2; HEK293, 0.1 mM phosphate; read-out: pIC50 range for human Nap2b (converted)
T2 construct: host or cells: HEK293
T2 sequence (O95436 1-690): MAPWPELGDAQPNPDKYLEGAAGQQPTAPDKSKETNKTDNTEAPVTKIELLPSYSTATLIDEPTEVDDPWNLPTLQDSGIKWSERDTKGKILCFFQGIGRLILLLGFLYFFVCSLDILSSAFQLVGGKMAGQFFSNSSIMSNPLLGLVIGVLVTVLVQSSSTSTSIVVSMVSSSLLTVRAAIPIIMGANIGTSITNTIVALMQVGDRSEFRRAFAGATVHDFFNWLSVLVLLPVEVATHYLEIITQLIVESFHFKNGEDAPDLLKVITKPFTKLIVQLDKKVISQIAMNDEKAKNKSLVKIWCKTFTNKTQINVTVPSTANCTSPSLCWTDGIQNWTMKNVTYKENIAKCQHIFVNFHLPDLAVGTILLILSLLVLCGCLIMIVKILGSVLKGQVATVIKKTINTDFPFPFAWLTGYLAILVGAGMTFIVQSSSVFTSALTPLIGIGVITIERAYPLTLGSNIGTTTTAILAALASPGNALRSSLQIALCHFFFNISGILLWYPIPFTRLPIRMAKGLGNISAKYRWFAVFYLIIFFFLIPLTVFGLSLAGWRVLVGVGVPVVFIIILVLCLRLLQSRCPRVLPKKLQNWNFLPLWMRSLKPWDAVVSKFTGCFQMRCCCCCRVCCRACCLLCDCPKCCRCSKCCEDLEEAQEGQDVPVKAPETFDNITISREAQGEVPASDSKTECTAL
Method: HEK293 cells were obtained from the American Type Culture collection and propagated per their instructions. Expression clones for rat and human NaP2b (SLC34A2) were obtained from Open Biosystems (Catalog numbers MRN1768-9510282, and MHS1010-99823026, respectively). The sequence of the human protein was mutated to insert a threonine after residue 37, and to introduce a N39D mutation.
The rate of phosphate (Pi) uptake into HEK293 cells was measured using a modification of the method described by Mohrmann et al. (Mohrmann, I., Mohrmann, M., Biber, J., and Murer, H. (1986) Am. J. Phys. 250(3 Pt 1):G323-30.) Transfected HEK293 cells were treated with a pharmacological agent to minimize endogenous PiT-mediated phosphate transport activity, such that the only remaining sodium-dependent phosphate transport activity is that which was bestowed by introduction of the NaP2b genes.
Cells were seeded into 96-well plates at 25,000 cells/well and cultured overnight. […]
After incubation for 3-30 minutes at room temperature, assay mixtures were removed, and the cells were washed twice with ice cold stop solution (137 mM sodium chloride, 14 mM Tris, pH 7.4). Cells were lysed by addition of 20 μL 0.1% Tween 80 followed by 100 μL scintillation fluid, and counted using a TopCount (Perkin Elmer).
pIC50 (the negative log of the IC50) values of the test compounds were calculated using GraphPad Prism.

IC50 (rat NaP2b (SLC34A2)): < 1000 nM
Cmax [1]: 3 ng/mL
IC50 (human NaP2b (SLC34A2)): < 1000 nM
SMILES: O=C(O)CCOCCOCCOCCNC(=O)c1cccc(C(=O)Nc2ccc(Cl)cc2C(=O)Nc2ccn(-c3cccc(C(F)(F)F)c3)n2)c1 [Example 25]
